# Legend:
# [1] = target: T1, Aurora A (Homo sapiens, UniProt O14965); experiment: Direct target affinity purification (DTAP) from cell lysates; type: binding; conditions: compound coupled to Sepharose beads
# T1 sequence (O14965 1-403): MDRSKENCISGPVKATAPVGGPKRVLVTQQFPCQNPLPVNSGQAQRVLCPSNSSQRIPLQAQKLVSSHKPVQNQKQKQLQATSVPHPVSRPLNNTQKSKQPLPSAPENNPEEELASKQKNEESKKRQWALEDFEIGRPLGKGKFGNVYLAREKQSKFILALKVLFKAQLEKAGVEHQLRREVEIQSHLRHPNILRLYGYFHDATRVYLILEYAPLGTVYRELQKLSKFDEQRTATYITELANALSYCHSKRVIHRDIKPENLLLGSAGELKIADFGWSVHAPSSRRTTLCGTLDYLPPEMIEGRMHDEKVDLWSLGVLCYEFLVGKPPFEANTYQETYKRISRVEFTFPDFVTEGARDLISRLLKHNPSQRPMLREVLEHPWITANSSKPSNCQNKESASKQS
# Description: (§1) Direct target affinity purification (DTAP) was used to investigate (1) the selectivity of compounds of the invention for TTK, relative to other kinases, and (2) the importance of a specific methyl substituent in providing that selectivity.
# (§2) In preparation for DTAP studies, the two compounds depicted above were synthesized with an alkyl-amine linker to allow covalent coupling to epoxy-activated Sepharose 6B beads (GE Healthcare, Piscataway, N.J.). Sepharose beads were swollen and washed with water for 30 min followed by equilibration in coupling buffer (50% dimethylformamide, 50 mM Na2CO3). Beads were pelleted by centrifugation (15 sec at 2000×g) and the supernatant removed by aspiration. An equal volume of coupling buffer containing the linkered test compound was used to resuspend the beads. Compound concentrations in the coupling reaction ranged from 0.1 mM to 12.5 mM. The coupling reactions were incubated at 34° C. for 18 hrs on a rotator mixer. Ethanolamine was added to 1 M for the final 1 hr to quench the coupling reaction. Beads were washed extensively with binding buffer (1 M NaCl, 50 mM Hepes [pH 7.4], 1% Triton X-100, 1 mM EDTA and 1 mM dithiothreitol) to remove residual coupling reagents, and were then stored at 4° C.
# (§3) Cellular proteins were prepared by mild sonication in lysis buffer (150 mM NaCl, 50 mM Hepes [pH 7.4], 1% Triton X-100, 1 mM EDTA and 2 mM dithiothrietol containing 1× Halt™ protease and phosphatase inhibitor cocktail [Thermo Fisher Scientific, Rockford, Ill.]). Lysates were centrifuged (20,000×g for 20 min) to remove debris, diluted to a protein concentration of ˜5 mg/ml, divided into aliquots, and stored at −80° C.
# (§4) For DTAP reactions, cell lysates (˜0.5 ml per binding reaction) were thawed and the NaCl concentration adjusted to 1 M. Competitor compounds dissolved in DMSO (or a DMSO control) were then added to the lysate and incubated on ice for 5 min. The lysates were centrifuged at 20,000×g for 10 min and the cleared supernatant was transferred to a tube containing 50 μl of coupled beads. The binding reactions were incubated on a rotator mixer at 4° C. for 2 hrs, after which the beads were pelleted by centrifugation and the supernatant removed by aspiration. The beads were washed three times with 20 volumes of binding buffer, 2× with 20 volumes wash buffer (150 mM NaCl, 50 mM Hepes [pH 7.4], 1% Tween 20, 1 mM EDTA, 2 mM dithiothrietol) and finally twice with 10 volumes of 150 mM NaCl, 50 mM Hepes [pH 7.4].
# (§5) During the final wash, an aliquot containing 10 μl of beads was transferred to a separate tube and resuspended with 15 μl of 2× SDS/PAGE loading buffer (Invitrogen Corporation, Carlsbad, Calif.) for 5 min at 90° C. The eluted proteins were resolved by electrophoresis on a NuPage 4-12% Bis-Tris Gel (Invitrogen Corporation, Carlsbad, Calif.) and visualized by staining with Ruby Red (Invitrogen Corporation, Carlsbad, Calif.). The remaining beads (40 μl) were processed for analysis by mass spectrometry.
# [2] = target: T2, TTK (Homo sapiens, UniProt P33981); experiment: as above; type: binding; conditions: compound coupled to Sepharose beads
# T2 sequence (P33981 1-857): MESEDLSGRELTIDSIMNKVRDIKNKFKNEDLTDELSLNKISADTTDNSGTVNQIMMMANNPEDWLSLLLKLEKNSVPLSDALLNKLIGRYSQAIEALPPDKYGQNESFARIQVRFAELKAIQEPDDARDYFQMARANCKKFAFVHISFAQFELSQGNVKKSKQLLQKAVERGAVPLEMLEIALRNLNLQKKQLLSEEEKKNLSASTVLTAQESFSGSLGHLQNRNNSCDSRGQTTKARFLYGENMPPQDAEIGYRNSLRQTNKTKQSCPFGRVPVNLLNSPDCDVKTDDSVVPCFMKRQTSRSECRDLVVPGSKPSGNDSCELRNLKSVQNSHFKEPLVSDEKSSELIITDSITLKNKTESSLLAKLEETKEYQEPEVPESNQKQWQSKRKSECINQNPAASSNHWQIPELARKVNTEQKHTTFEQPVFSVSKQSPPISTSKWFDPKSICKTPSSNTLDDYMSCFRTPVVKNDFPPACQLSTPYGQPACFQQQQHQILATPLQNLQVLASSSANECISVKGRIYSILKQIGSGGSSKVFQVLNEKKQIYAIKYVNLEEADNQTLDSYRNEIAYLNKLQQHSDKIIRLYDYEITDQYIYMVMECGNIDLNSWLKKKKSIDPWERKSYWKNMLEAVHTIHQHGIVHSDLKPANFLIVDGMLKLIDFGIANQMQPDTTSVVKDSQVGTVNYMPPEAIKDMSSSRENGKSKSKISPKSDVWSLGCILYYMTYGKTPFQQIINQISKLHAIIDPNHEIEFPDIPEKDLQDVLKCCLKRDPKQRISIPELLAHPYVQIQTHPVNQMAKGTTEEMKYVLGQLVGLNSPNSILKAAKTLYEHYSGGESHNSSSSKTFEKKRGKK
# Description: as §1, §2, §3, §4, §5
# [3] = target: T3, JAK1 (Homo sapiens, UniProt P23458); experiment: as above; type: binding; conditions: compound coupled to Sepharose beads
# T3 construct: Cellular proteins were prepared by mild sonication in lysis buffer; endogenous in cells
# T3 sequence (P23458 whole entry, species assumed): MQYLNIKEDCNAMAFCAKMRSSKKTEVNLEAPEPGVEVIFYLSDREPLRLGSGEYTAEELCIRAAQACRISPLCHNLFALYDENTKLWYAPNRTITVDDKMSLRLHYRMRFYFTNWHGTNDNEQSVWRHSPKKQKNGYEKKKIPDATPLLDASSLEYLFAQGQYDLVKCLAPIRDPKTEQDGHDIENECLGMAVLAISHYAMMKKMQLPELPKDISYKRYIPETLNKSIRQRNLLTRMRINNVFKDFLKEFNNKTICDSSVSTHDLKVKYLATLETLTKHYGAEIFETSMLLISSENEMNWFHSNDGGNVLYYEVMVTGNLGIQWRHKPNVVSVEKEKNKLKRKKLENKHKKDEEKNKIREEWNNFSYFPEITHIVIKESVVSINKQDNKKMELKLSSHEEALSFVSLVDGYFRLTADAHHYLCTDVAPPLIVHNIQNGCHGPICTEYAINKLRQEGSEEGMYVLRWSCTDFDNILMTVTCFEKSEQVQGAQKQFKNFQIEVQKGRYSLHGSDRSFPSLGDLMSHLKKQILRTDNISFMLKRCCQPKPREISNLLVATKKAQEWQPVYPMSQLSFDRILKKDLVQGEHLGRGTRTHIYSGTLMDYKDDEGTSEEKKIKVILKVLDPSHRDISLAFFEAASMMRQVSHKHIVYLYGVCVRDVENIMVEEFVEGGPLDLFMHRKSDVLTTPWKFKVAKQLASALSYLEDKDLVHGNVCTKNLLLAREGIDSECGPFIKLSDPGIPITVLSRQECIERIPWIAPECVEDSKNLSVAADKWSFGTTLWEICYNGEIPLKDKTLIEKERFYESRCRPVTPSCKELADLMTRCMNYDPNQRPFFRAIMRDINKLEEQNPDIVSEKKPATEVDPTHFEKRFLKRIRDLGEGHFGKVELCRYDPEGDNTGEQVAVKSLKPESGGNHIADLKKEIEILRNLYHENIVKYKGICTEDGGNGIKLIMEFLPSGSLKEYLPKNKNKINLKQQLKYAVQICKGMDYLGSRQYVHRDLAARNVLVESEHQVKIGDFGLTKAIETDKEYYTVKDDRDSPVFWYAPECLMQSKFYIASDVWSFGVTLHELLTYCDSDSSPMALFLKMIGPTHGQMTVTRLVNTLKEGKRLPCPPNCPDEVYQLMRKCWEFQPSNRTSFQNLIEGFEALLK
# Description: as §1, §2, §3, §4, §5
# [4] = target: T4, FER (Homo sapiens, UniProt P16591); experiment: as above; type: binding; conditions: compound coupled to Sepharose beads
# T4 sequence (P16591 whole entry, species assumed): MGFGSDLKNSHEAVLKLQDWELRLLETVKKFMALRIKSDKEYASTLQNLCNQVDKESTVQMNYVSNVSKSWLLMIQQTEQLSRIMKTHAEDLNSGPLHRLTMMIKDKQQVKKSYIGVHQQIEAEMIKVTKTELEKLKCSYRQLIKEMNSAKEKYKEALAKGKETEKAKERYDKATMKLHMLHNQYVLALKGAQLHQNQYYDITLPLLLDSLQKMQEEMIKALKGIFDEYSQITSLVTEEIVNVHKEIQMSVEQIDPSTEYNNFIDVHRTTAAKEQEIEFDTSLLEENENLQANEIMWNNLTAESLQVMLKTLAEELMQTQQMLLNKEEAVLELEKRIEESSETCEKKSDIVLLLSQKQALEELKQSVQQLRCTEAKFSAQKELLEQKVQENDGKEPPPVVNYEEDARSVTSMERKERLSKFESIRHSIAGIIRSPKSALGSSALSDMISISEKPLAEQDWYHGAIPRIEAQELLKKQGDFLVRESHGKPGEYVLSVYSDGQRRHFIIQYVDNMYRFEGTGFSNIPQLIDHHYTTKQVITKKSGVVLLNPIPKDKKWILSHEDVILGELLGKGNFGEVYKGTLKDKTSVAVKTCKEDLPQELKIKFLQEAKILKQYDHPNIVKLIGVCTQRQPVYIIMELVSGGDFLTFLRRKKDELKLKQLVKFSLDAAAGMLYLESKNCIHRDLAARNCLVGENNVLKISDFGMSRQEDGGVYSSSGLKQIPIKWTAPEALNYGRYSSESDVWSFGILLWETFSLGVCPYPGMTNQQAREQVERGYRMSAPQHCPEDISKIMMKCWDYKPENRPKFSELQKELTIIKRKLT
# Description: as §1, §2, §3, §4, §5
# [5] = target: JNK (Homo sapiens, UniProt P45983); experiment: as above; type: binding; conditions: compound coupled to Sepharose beads
# JNK, sequence (P45983 whole entry): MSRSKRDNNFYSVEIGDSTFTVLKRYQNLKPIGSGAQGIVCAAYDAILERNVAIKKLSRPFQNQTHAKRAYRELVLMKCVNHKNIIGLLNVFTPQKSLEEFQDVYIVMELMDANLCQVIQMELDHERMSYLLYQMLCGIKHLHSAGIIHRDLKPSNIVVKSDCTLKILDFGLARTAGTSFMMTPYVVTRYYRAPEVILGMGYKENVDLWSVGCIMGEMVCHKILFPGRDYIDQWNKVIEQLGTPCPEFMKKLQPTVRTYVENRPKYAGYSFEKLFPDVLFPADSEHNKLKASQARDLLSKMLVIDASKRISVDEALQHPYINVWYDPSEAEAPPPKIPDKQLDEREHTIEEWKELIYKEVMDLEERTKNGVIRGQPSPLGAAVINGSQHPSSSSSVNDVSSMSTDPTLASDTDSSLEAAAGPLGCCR
# Description: as §1, §2, §3, §4, §5
# [6] = target: T4, FER; experiment: In vitro binding assays
compound,measurement,setting,value
"NCCCOc1ccc(Nc2nc(NC3CCCCC3)c3nc[nH]c3n2)cc1 [N2-[4-(3-aminopropoxy)phenyl]-N-6-cyclohexyl-9H-purine-2,6-diamine]",binding of Aurora A from cell lysates to bead-coupled compound,[1],found to bind
same,binding of TTK from cellular lysates to bead-coupled compound,[2],high affinity
same,binding of JAK1 from cell lysates to bead-coupled compound,[3],found to bind
same,binding of FER from cell lysates to bead-coupled compound,[4],found to bind
same,binding of JNK from cell lysates to bead-coupled compound,[5],found to bind
same,IC50,[6],15 nM
